Test results: patent publication US20230047788A1, “COMPOSITIONS COMPRISING 5-CHOLESTEN-3, 25-DIOL, 3-SULFATE (25HC3S) OR PHARMACEUTICALLY ACCEPTABLE SALT THEREOF AND AT LEAST ONE CYCLIC OLIGOSACCHARIDE” (Virginia Commonwealth University, priority 2016, published 2023)

Tests used:
Format in all cases: in vivo, C57BL/6J mice
[1] = tested on: liver function markers ALT, AST, ALK, LDH; assay: Liver function markers in serum of mice overdosed with APAP (350 mg/kg); conditions: vehicle plus 25 mg/kg 25HC3S 0.5 hours after overdose, 24 hours after treatment
Experimental: The ability of 25HC3S to treat symptoms of APAP overdose was examined. 12-week-old male C57BL/6J mice were fasted overnight and injected (intraperitoneally) with APAP: 600 mg/kg (high dose) for mortality studies or 350 mg/kg (low dose) for liver function and gene studies. Control mice received only vehicle (20% (v/v) a propylene glycol, 4% (w/v) cyclodextrin (powdered hydroxypropyl beta cyclodextrin in sterile 10% (w/v) glucose.
A composition comprising 25 mg/kg of 25HC3S sodium salt in vehicle was administered intravenously to the experimental mice 0.5 hours after APAP administration. Mortality was monitored in the high dose mice. In the low dose mice, the liver function markers aspartate aminotransferase (AST), alanine aminotransferase (ALT), alkaline phosphatase (ALK) and lactate dehydrogenase (LDH), were measured in serum. Impacts on gene expression were determined by Quantitative Real-time PCR. Membrane potentials were measured using JC1 staining and flow cytometry.
One group of low dose mice received treatment with 25HC3S in vehicle 0.5 hours after the overdose. In this group, liver function markers were assessed 24 hours after treatment. […] However, in mice treated with vehicle alone, the values were […] and in mice treated with vehicle plus 25 mg/kg of 25HC3S, the values were near normal. The differences in the measured values were statistically significant.

[2] = tested on: LPS endotoxin shock model; assay: Survival in rodent model of LPS endotoxin shock; conditions: LPS 5 mg/kg iv; 50 mg/kg 25HC3S ip 2 hours prior to LPS; six days after LPS; N=10
Experimental: The subjects for the study were 20 male C57BL/6J mice (20-22 weeks of age, 27-35 g).
A solution formulation of 25HC3S and its respective vehicle was used for the study. The vehicle was a solution of 4% (w/v) hydroxypropyl betadex, 10% (w/v) dextrose, with 10 mM sodium phosphate buffer in sterile water. Vehicle was stored at 2-8° C. storage and placed at room temperature for 30 minutes prior to dosing.
25HC3S sodium salt was pre-dissolved into the vehicle solution to result in a drug concentration of 5 mg/mL. The 25HC3S solution was ready-to-use at the start of dosing. It was also stored at 2-8° C. storage and placed at room temperature for 30 minutes prior to dosing the mice.
50 mg/kg of 25HC3S in vehicle or vehicle alone (N=10/group) were administered to mice once by intraperitoneal injection 2 hours prior to LPS delivery. A semi-lethal dose of LPS (5 mg/kg) was given by intravenous injection to the tail vein in order to induce an acute inflammatory response that mimics systemic sepsis-like conditions.
Mice were monitored for survival for 6 days after 25HC3S and LPS treatments. Animal checks for mortality were performed twice daily during the 6 day observation period. Animals were examined for any altered clinical signs, including gross motor and behavioral activity, and observable changes in appearance. […]

[3] = tested on: GI-ARS model (partial shielding irradiation); assay: Clinical signs and survival in rodent model of gastrointestinal acute radiation syndrome (GI-ARS)
Experimental: The subjects for the two studies outlined here were (A) Study 1: 20 male C57BL/6J mice (8 weeks of age; 23-28 g) and (B) Study 2: 16 male C57BL/6J mice (8 weeks of age; 23-28 g). Following arrival, all animals were subjected to a health assessment and evaluation was performed in accordance with the standard operating procedures and by technical staff working under the supervision of the clinical veterinarian. An acclimation period of at least 11 days was allowed between receipt of the animals and irradiation to accustom the animals to the laboratory environment.
A solution formulation of 25HC3S sodium salt and its respective vehicle was used for the study. The Vehicle was a solution of 4% (w/v) hydroxypropyl betadex in 75% (v/v) of 0.9% (w/v) sodium chloride and 25% (v/v) sterile water. 25HC3S sodium salt was pre-dissolved into the Vehicle solution to result in a drug concentration of 5 mg/mL. The 25HC3S solution was ready-to-use at the start of dosing. In Study 1, the vehicle was stored at 2-8° C. whereas the 25HC3S solution was stored at room temperature prior and throughout the study duration; in Study 2, both vehicle and 25HC3S solutions were stored at 2-8° C.
Partial shielding irradiation (PSI) exposure at a high radiation dose (>10Gy) is an established approach to mimic GI-ARS in mice. Animals were exposed to whole-body irradiation with partial shielding (Day 0) in a custom designed restrainer where their left pelvic limb was extended and maintained in position with an elastic band. The left pelvic limb was shielded with a cerrobend structure. Animals received a whole body irradiation dose with partial shielding of 15.78 Gy (LD50/22) for Study 1 whereas mice were exposed to 15.16 Gy (LD25/22) in Study 2. The dose rate of the ^60Co gamma source was fixed at approximately 60 cGy per minute. The in-life portion of both the studies after PSI was 22 days.
Study 1: Mice (N=20/group) were administered once daily with 25HC3S (or vehicle) for 7 consecutive days starting on the day following irradiation (Day 1) by subcutaneous injection between scapulas using a 27G needle attached to a syringe. The dose volume was 10 mL/kg for all dose routes and the dose was adjusted based on the most recent body weight. Study 2: Mice (N=16/group) were administered with 25HC3S (or vehicle) for a total of […]. Animals were given drug (or vehicle) once on the day following irradiation (Day 1) and once on Day 4 by subcutaneous injection between scapulas using a 27G needle attached to a syringe. The dose volume was 10 mL/kg for all dose routes and the dose was adjusted based on the most recent body weight.
Mortality checks were recorded concomitantly with the cage-side observations, during all phases of the study. Mortality checks for all animals were also recorded at least once during the night from Day 5 through Day 8. Clinical signs (ill health, behavioral changes, fur color/consistency changes etc.) were also recorded on all surviving animals twice daily throughout observation period (described in Table 10). Additional clinical observations were performed when deemed necessary. All observations were recorded as cage side clinical signs or detailed clinical examination when possible. A detailed clinical examination was performed on each animal at least as follows: prior to animal assignment, one day prior to irradiation (Day −1) then every 3 days throughout the observation period. […]

Compound: C[C@H](CCCC(C)(C)O)[C@H]1CC[C@H]2[C@@H]3CC=C4C[C@@H](OS(=O)(=O)[O-])CC[C@]4(C)[C@H]3CC[C@]12C.[Na+] [25HC3S, 5-cholesten-3, 25-diol, 3-sulfate]
- liver function markers ALT, AST and LDH [1]: near normal
- mice that had died [2]: 40%
- Survival ([3]; Study 1, 15.78 Gy, by Day 7): 45%
- mortality, treatment vs vehicle group ([3]; Study 1, 15.78 Gy, sc once daily for 7 days from Day 1): not significant
- average number of clinical signs/mice vs vehicle-treated group ([3]; Study 1, Days 5-22, animals that survived the entire in-life portion): statistically lower
- Survival improved by (vs vehicle) ([3]; Study 2, 15.16 Gy): 18.75%
- Survival ([3]; Study 2, 15.16 Gy, sc doses on Day 1 and Day 4, 50 mg/kg/dose): 81.25%
